Assay results published in US5821363A, “Antineoplastic use and pharmaceutical compositions containing them” (priority 1996, dated 1998).
Values after ≈ are worked out from the molar mass of the structure shown. Read-outs that look alike come from different tables or passages of the source.

Assays:
Assay type in all cases: cell-based
[1] = test system: L1210 mouse leukemia carcinoma cells; experiment: cytotoxicity / inhibition of cell proliferation in L1210 leukemia cells; settings: for IC90: L1210, read-out: IC90 (90% growth inhibitory concentration)
KB-3-1 = experiment: killing of drug sensitive (non-MDR) KB-3-1 cells; settings: Homo sapiens
KB-V1 = experiment: killing of multidrug resistant KB-V1 cells; settings: for IC50: Homo sapiens
[2] = test system: A2780 human ovarian carcinoma; experiment: cytotoxicity in A2780 human ovarian carcinoma cells
[3] = L1210, read-out: L1210 (IC50 μg/ml)
[4] = KB-3-1 drug sensitive cells, Table III, read-out: KB-3-1 (IC50; nM)
[5] = L1210 leukemia, Table I, 50% inhibition of cell proliferation vs untreated control, read-out: L1210 (IC50 μg/ml)
[6] = KB-V1 multidrug resistant cells, Table III, read-out: KB-V1 (IC50; nM)
[7] = ratio of IC50 KB-V1 to IC50 KB-3-1
[8] = KB 3-1, read-out: KB-3-1 (IC50; nM)
[9] = KB-V1, read-out: KB-V1 (IC50; nM)
[10] = Homo sapiens, A2780, read-out: A2780 (IC50 μg/ml)
[11] = A2780 human ovarian carcinoma, Table II, read-out: A2780 (IC50 μg/ml)

Structure (SMILES): CC[Si](CC)(CC)O[C@H]1C[C@H]2OC[C@@]2(OC(C)=O)[C@H]2[C@H](OC(=O)c3ccccc3)[C@]3(O)CC(OC(=O)[C@H](O)[C@@H](NC(=O)OC(C)(C)C)c4ccccc4)=C(C)[C@H]([C@@H](OC(C)=O)C(=O)[C@]12C)C3(C)C [Compound 6, 7-TES-13-(N-Boc-β-phenylisoserinyl)-Δ^12,13-iso-baccatin III]
- IC50 [1, 3]: > 0.1 µg/mL

Structure (SMILES): CC(=O)O[C@H]1C(=O)[C@@]2(C)[C@H]([C@H](OC(=O)c3ccccc3)[C@]3(O)CC(OC(=O)[C@H](O)[C@@H](NC(=O)OC(C)(C)C)c4ccccc4)=C(C)[C@H]1C3(C)C)[C@]1(OC(C)=O)CO[C@@H]1C[C@@H]2O [Compound 7, 13-(N-Boc-β-phenylisoserinyl)-Δ^12,13-iso-baccatin III]
- IC50 (KB-3-1; [4]): 0.2 nM
- IC50 [1, 5]: 0.0046 µg/mL (≈ 5.41 nM)
- IC50 (KB-V1; [6]): 40 nM
- Ratio: KBV-1/KB-3-1 (KB-V1; [7]): 228

Structure (SMILES): CC(=O)O[C@@]12CO[C@@H]1C[C@H](O)[C@@]1(C)C(=O)[C@H](O)[C@H]3C(C)=C(OC(=O)[C@H](O)[C@@H](NC(=O)OC(C)(C)C)c4ccccc4)C[C@@](O)([C@@H](OC(=O)c4ccccc4)[C@H]21)C3(C)C [Compound 8, 10-deacetyl-13-(N-Boc-β-phenylisoserinyl)-Δ^12,13-iso-baccatin III]
- IC50 [1, 5]: 0.0059 µg/mL (≈ 7.3 nM)

Structure (SMILES): CC(=O)O[C@H]1C(=O)[C@]2(C)[C@@H](OC(=O)OCC(Cl)(Cl)Cl)C[C@H]3OC[C@@]3(OC(C)=O)[C@H]2[C@H](OC(=O)c2ccccc2)[C@]2(O)CC(OC(=O)[C@H](O)[C@@H](NC(=O)OC(C)(C)C)c3ccccc3)=C(C)[C@H]1C2(C)C [Compound 12, 7-Troc-13-(N-Boc-β-phenylisoserinyl)-Δ^12,13-iso-baccatin III]
- IC50 [1, 3]: 0.011 µg/mL (≈ 10.7 nM)

Structure (SMILES): CC(=O)O[C@H]1C(=O)[C@]23C[C@H]2C[C@H]2OC[C@@]2(OC(C)=O)[C@H]3[C@H](OC(=O)c2ccccc2)[C@]2(O)CC(OC(=O)[C@H](OC(=O)OCC(Cl)(Cl)Cl)[C@@H](NC(=O)OC(C)(C)C)c3ccccc3)=C(C)[C@H]1C2(C)C [Compound 14, 2'-Troc-13-(N-Boc-β-phenylisoserinyl)-7-deoxy-7b,8b-methano-Δ^12,13-iso-baccatin III]
- IC50 [1, 3]: 0.012 µg/mL (≈ 11.9 nM)

Structure (SMILES): CC(=O)O[C@H]1C(=O)[C@]2(C)C=C[C@H]3OC[C@@]3(OC(C)=O)[C@H]2[C@H](OC(=O)c2ccccc2)[C@]2(O)CC(OC(=O)[C@H](OC(=O)OCC(Cl)(Cl)Cl)[C@@H](NC(=O)OC(C)(C)C)c3ccccc3)=C(C)[C@H]1C2(C)C [Compound 15, 2'-Troc-13-(N-Boc-β-phenylisoserinyl)-7-deoxy-Δ^6,7 -Δ^12,13-iso-baccatin III]
- IC50 [1, 3]: 0.0066 µg/mL (≈ 6.55 nM)

Structure (SMILES): CC(=O)O[C@H]1C(=O)[C@]2(C)C(F)C[C@H]3OC[C@@]3(OC(C)=O)[C@H]2[C@H](OC(=O)c2ccccc2)[C@]2(O)CC(OC(=O)[C@H](O)[C@@H](NC(=O)OC(C)(C)C)c3ccccc3)=C(C)[C@H]1C2(C)C (stereo partly drawn) [Compound 16, 13-(N-Boc-β-phenylisoserinyl)-7-deoxy-7-fluoro-Δ^12,13-iso-baccatin III]
- IC50 [1, 3]: 0.0029 µg/mL (≈ 3.4 nM)

Structure (SMILES): CC(=O)O[C@H]1C(=O)[C@]23C[C@H]2C[C@H]2OC[C@@]2(OC(C)=O)[C@H]3[C@H](OC(=O)c2ccccc2)[C@]2(O)CC(OC(=O)[C@H](O)[C@@H](NC(=O)OC(C)(C)C)c3ccccc3)=C(C)[C@H]1C2(C)C [Compound 17, 13-(N-Boc-β-phenylisoserinyl)-7-deoxy-7β,8β-methano-Δ^12,13-iso-baccatin III]
- IC50 (KB-3-1; [8]): 0.22 nM
- IC90 [1]: 17 ng/mL (≈ 20.4 nM)
- IC50 [1, 3]: 0.0018 µg/mL (≈ 2.16 nM)
- IC50 (KB-V1; [9]): 13 nM
- Ratio: KBV-1/KB-3-1 (KB-V1; human, kb-v1 vs kb-3-1 cells): 61

Structure (SMILES): CC(=O)O[C@H]1C(=O)[C@]2(C)C=C[C@H]3OC[C@@]3(OC(C)=O)[C@H]2[C@H](OC(=O)c2ccccc2)[C@]2(O)CC(OC(=O)[C@H](O)[C@@H](NC(=O)OC(C)(C)C)c3ccccc3)=C(C)[C@H]1C2(C)C [Compound 18, 13-(N-Boc-β-phenylisoserinyl)-7-deoxy-Δ^6,7 -Δ^12,13-iso-baccatin III]
- IC50 (KB-3-1; [8]): 0.2 nM
- IC50 [1, 3]: 0.0022 µg/mL (≈ 2.64 nM)
- IC50 (KB-V1; [9]): 6.2 nM
- Ratio: KBV-1/KB-3-1 (KB-V1; human, kb-v1 vs kb-3-1 cells): 34

Structure (SMILES): CC[Si](CC)(CC)O[C@H]1C[C@H]2OC[C@@]2(OC(C)=O)[C@H]2[C@H](OC(=O)c3ccccc3)[C@]3(O)CC(OC(=O)[C@H](O)[C@@H](NC(=O)NC(C)(C)C)c4ccccc4)=C(C)[C@H]([C@@H](OC(C)=O)C(=O)[C@]12C)C3(C)C [Compound 32a, 7-TES-13-(N-(t-butylaminocarbonyl)-β-phenylisoserinyl)-Δ^12,13-iso-baccatin III]
- IC50 [1, 3]: 0.07 µg/mL (≈ 72.7 nM)

Structure (SMILES): CC(=O)O[C@H]1C(=O)[C@@]2(C)[C@H]([C@H](OC(=O)c3ccccc3)[C@]3(O)CC(OC(=O)[C@H](O)[C@@H](NC(=O)NC(C)(C)C)c4ccccc4)=C(C)[C@H]1C3(C)C)[C@]1(OC(C)=O)CO[C@@H]1C[C@@H]2O [Compound 32b, 13-(N-(t-butylaminocarbonyl)-β-phenylisoserinyl)-Δ^12,13-iso-baccatin III]
- IC50 (KB-3-1; [4]): 0.081 nM
- IC50 [1, 5]: 0.0053 µg/mL (≈ 6.24 nM)
- IC50 (KB-V1; [6]): 1100 nM
- Ratio: KBV-1/KB-3-1 (KB-V1; [7]): 17,650

Structure (SMILES): CC(=O)O[C@H]1C(=O)[C@]23C[C@H]2C[C@H]2OC[C@@]2(OC(C)=O)[C@H]3[C@H](OC(=O)c2ccccc2)[C@]2(O)CC(OC(=O)[C@H](O)[C@@H](NC(=O)NC(C)(C)C)c3ccccc3)=C(C)[C@H]1C2(C)C [Compound 36, 13-(N-(t-butylaminocarbonyl)-β-phenylisoserinyl)-7-deoxy-7β,8β-methano-Δ^12,13-iso-baccatin III]
- IC50 (KB-3-1; [4]): 0.05 nM
- IC50 (KB-V1; [6]): 360 nM
- Ratio: KBV-1/KB-3-1 (KB-V1; [7]): 11,400

Structure (SMILES): CC(=O)O[C@H]1C(=O)[C@]2(C)C=C[C@H]3OC[C@@]3(OC(C)=O)[C@H]2[C@H](OC(=O)c2ccccc2)[C@]2(O)CC(OC(=O)[C@H](O)[C@@H](NC(=O)NC(C)(C)C)c3ccccc3)=C(C)[C@H]1C2(C)C [Compound 38, 13-(N-(t-butylaminocarbonyl)-β-phenylisoserinyl)-7-deoxy-Δ^6,7 -Δ^12,13-iso-baccatin III]
- IC50 (KB-3-1; [8]): 0.078 nM
- IC50 (KB-V1; [9]): 360 nM
- Ratio: KBV-1/KB-3-1 (KB-V1; human, kb-v1 vs kb-3-1 cells): 4,800

Structure (SMILES): CCOCO[C@H]1C[C@H]2OC[C@@]2(OC(C)=O)[C@H]2[C@H](OC(=O)c3ccccc3)[C@]3(O)CC(OC(=O)[C@H](O)[C@@H](NC(=O)OC(C)(C)C)c4ccccc4)=C(C)[C@H]([C@@H](OC(C)=O)C(=O)[C@]12C)C3(C)C [Compound 41, 7-(O-ethoxymethyl)-13-(N-Boc-β-phenylisoserinyl)-Δ^12,13-iso-baccatin III]
- IC50 (KB-3-1; [4]): 0.011 nM
- IC50 [1, 5]: 0.0007 µg/mL (≈ 0.771 nM)
- IC50 (KB-V1; [6]): 0.77 nM
- Ratio: KBV-1/KB-3-1 (KB-V1; [7]): 170

Structure (SMILES): CCOCO[C@H]1C[C@H]2OC[C@@]2(OC(C)=O)[C@H]2[C@H](OC(=O)c3ccccc3)[C@]3(O)CC(OC(=O)[C@H](O)[C@@H](NC(=O)NC(C)(C)C)c4ccccc4)=C(C)[C@H]([C@@H](OC(C)=O)C(=O)[C@]12C)C3(C)C [Compound 43, 7-(O-ethoxymethyl)-13-(N-(t-butylaminocarbonyl)-β-phenylisoserinyl)-Δ^12,13-iso-baccatin III]
- IC50 [1, 5]: 0.0014 µg/mL (≈ 1.54 nM)
- IC50 (KB-V1; [6]): 120 nM
- Ratio: KBV-1/KB-3-1 (KB-V1; [7]): 2.5 × 10^5

Structure (SMILES): COCO[C@H]1C[C@H]2OC[C@@]2(OC(C)=O)[C@H]2[C@H](OC(=O)c3ccccc3)[C@]3(O)CC(OC(=O)[C@H](O)[C@@H](NC(=O)OCc4ccccc4)c4ccccc4)=C(C)[C@H]([C@@H](OC(C)=O)C(=O)[C@]12C)C3(C)C [Compound 64, 7-(O-methoxymethyl)-13-(N-Cbz-β-phenylisoserinyl)-Δ^12,13-iso-baccatin III]
- IC50 [2, 10]: 0.0029 µg/mL (≈ 3.13 nM)

Structure (SMILES): COCO[C@H]1C[C@H]2OC[C@@]2(OC(C)=O)[C@H]2[C@H](OC(=O)c3ccccc3)[C@]3(O)CC(OC(=O)[C@H](O)[C@@H](NC(=O)OC(C)(C)C)c4ccccc4)=C(C)[C@H]([C@@H](OC(C)=O)C(=O)[C@]12C)C3(C)C [Compound 66, 7-(O-methoxymethyl)-13-(N-Boc-β-phenylisoserinyl)-Δ^12,13-iso-baccatin III]
- IC50 [2, 11]: 0.00026 µg/mL (≈ 0.291 nM)
- IC50 (KB-V1; [6]): 0.046 nM
- Ratio: KBV-1/KB-3-1 (KB-V1; [7]): 300

Structure (SMILES): COCO[C@H]1C[C@H]2OC[C@@]2(OC(C)=O)[C@H]2[C@H](OC(=O)c3ccccc3)[C@]3(O)CC(OC(=O)[C@H](O)[C@@H](NC(=O)NC(C)(C)C)c4ccccc4)=C(C)[C@H]([C@@H](OC(C)=O)C(=O)[C@]12C)C3(C)C [Compound 67, 7-(O-methoxymethyl)-13-(N-t-butylaminocarbonyl-β-phenylisoserinyl)-Δ^12,13-iso-baccatin III]
- IC50 [2, 10]: 0.00042 µg/mL (≈ 0.47 nM)

Structure (SMILES): CSCO[C@H]1C[C@H]2OC[C@@]2(OC(C)=O)[C@H]2[C@H](OC(=O)c3ccccc3)[C@]3(O)CC(OC(=O)[C@H](O)[C@@H](NC(=O)NC(C)(C)C)c4ccccc4)=C(C)[C@H]([C@@H](OC(C)=O)C(=O)[C@]12C)C3(C)C [Compound 72, 7-(O-methylthiomethyl)-13-(N-t-butylaminocarbonyl-β-phenylisoserinyl)-Δ^12,13-iso-baccatin III]
- IC50 [2, 10]: 0.0004 µg/mL (≈ 0.44 nM)

Structure (SMILES): CO[C@H]1C[C@H]2OC[C@@]2(OC(C)=O)[C@H]2[C@H](OC(=O)c3ccccc3)[C@]3(O)CC(OC(=O)[C@H](O)[C@@H](NC(=O)NC(C)(C)C)c4ccccc4)=C(C)[C@H]([C@@H](OC(C)=O)C(=O)[C@]12C)C3(C)C [Compound 73, 7-(O-methyl)-13-(N-t-butylaminocarbonyl-β-phenylisoserinyl)-Δ^12,13-iso-baccatin III]
- IC50 [2, 11]: 0.00039 µg/mL (≈ 0.452 nM)

Structure (SMILES): CC(=O)O[C@H]1C(=O)[C@@]2(C)[C@H]([C@H](OC(=O)c3ccccc3)[C@]3(O)C[C@H](OC(=O)[C@H](O)[C@@H](NC(=O)c4ccccc4)c4ccccc4)C(C)=C1C3(C)C)[C@]1(OC(C)=O)CO[C@@H]1C[C@@H]2O [taxol, reference compound]
- IC50 (KB-3-1; [8]): 1.3 nM
- IC50 [2, 10]: 0.002 to 0.003 µg/mL (≈ 2.34 to 3.51 nM)
- IC90 [1]: 18 ng/mL (≈ 21.1 nM)
- IC50 [1, 3]: 0.017 µg/mL (≈ 19.9 nM)
- IC50 (KB-V1; [9]): 15000 nM
- Ratio: KBV-1/KB-3-1 (KB-V1; human, kb-v1 vs kb-3-1 cells): 11,538
- average ratio (IC50 KB-V1/IC50 KB-3-1) (KB-V1; human, kb-v1 vs kb-3-1 cells): 7,570
